In US20240287154A1, “MC3R AGONIST PEPTIDES” (The Regents of the University of Michigan, priority 2021, published 2024):
Non-standard residues stand in square brackets, D forms with d. Residues, ends and D or L forms follow the SMILES beside them. Bip = N[C@@H](Cc1ccc(-c2ccccc2)cc1)C(=O)O; Phe(4-Cl) = N[C@@H](Cc1ccc(Cl)cc1)C(=O)O; Nle = CCCC[C@H](N)C(=O)O; dAbu = CC[C@@H](N)C(=O)O; Aib = CC(C)(N)C(=O)O

Target: human MC4R (Homo sapiens, UniProt P32245)
Experiment: Intracellular cAMP levels in live cells, MC3R selectivity relative to MC4R
Format: cell-based
Settings: cAMP assays in human MC3R and human MC4R stable cell lines
Description: The stable cell lines were grown and maintained in selection media consisting of Dulbecco's modified Eagle media (DMEM) with 4.5 g/l D-glucose, and 4 mM L-glutamine (Thermo Fisher Scientific, Waltham, MA), supplemented with 10% fetal bovine serum, 100 units/ml penicillin, 100 μg/ml streptomycin, 2.5 μg/ml amphotericin B, 200 μg/ml hygromycin B (for positive selection of the GScAMP22f luciferase reporter), and Geneticin™ (G418) 700 μg/ml (for MC3R or MC4R selection). Actual serum concentration during the assay is estimated to be about 1%. Cell line identity is routinely verified by qPCR and MC3R- and MC4R-specific oligonucleotides.
The assay for the determination of the CAMP response in live cells was described previously. […] Ccells were seeded at a density of 20,000 cells per well using 384-well poly-D lysine-coated, clear bottom, and black-wall assay plates (Corning Inc. Corning, NJ). Cells were allowed to attach to the plates for 18 to 24 h after which growth media was removed and 20 ul of 4% D-luciferin (Promega) in CO2 independent, serum-free medium (Thermo Fisher Scientific) was added to each well. […] Intracellular cAMP levels were measured using an FDSS 7000EX Functional Drug Screening System (Hamamatsu Photonics, Hamamatsu, Japan) in the Center for Chemical Genomics at the Life Sciences Institute. This instrument allowed the in-line addition of test-peptides and receptor agonists while simultaneously acquiring the luminescence signal from live cells. […] A submaximal forskolin (20 μM) concentration was also included to serve as a normalization reference to account for cell number variations and differences in assay transducer efficiency between cell lines.
With this set up it was possible to evaluate the direct agonist effect of the test-peptides on the MC3R and MC4R cell lines during measurement window 1, while the antagonist profile in the presence of EC90 α-MSH was determined on measurement window 2. […] EC50 or IC50 potency values were determined by non-linear regression by fitting the data to a sigmoid four-parameter variable slope model using the GraphPad Prism version 8.4 software package (San Diego CA).

Sequence of human MC4R (P32245 whole entry): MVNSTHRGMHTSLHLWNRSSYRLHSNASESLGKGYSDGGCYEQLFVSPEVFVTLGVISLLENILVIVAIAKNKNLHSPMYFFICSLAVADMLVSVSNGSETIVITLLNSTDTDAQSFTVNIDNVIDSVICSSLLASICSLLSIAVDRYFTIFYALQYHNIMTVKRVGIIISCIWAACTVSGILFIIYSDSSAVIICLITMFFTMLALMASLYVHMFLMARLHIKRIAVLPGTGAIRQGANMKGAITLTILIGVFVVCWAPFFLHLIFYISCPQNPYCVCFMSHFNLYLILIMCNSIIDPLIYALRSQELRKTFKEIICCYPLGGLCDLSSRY

Structure (SMILES) | MC3R selectivity (relative to MC4R)
CCCC[C@H](NC(=O)[C@@H](NC(=O)[C@@H](N)Cc1ccc(O)cc1)C(C)C)C(=O)NC(C)(C)C(=O)N[C@@H](Cc1c[nH]cn1)C(=O)N[C@@H](Cc1ccccc1)C(=O)N[C@@H](CCCNC(=N)N)C(=O)N[C@H](Cc1c[nH]c2ccccc12)C(=O)N[C@@H](CC(=O)O)C(N)=O [CTX-1130, Tyr-Val-Nle-Aib-His-Phe-Arg-D-Trp-Asp] (H-YV[Nle][Aib]HFR[dW]D-NH2) | 58
CCCC[C@H](NC(=O)[C@@H](NC(=O)[C@@H](N)Cc1ccc(O)cc1)C(C)C)C(=O)N[C@@H](C)C(=O)N[C@@H](Cc1c[nH]cn1)C(=O)N[C@@H](Cc1ccccc1)C(=O)N[C@@H](CCCNC(=N)N)C(=O)N[C@H](Cc1c[nH]c2ccccc12)C(=O)N[C@@H](CC(=O)O)C(=O)N[C@@H](CCCNC(=N)N)C(=O)N[C@@H](Cc1ccccc1)C(=O)NCC(=O)O [CTX-1133, Tyr-Val-Nle-Ala-His-Phe-Arg-D-Trp-Asp-Arg-Phe-Gly] (H-YV[Nle]AHFR[dW]DRFG-OH) | 7.4
CCCC[C@H](NC(=O)[C@@H](NC(=O)[C@@H](N)Cc1ccc(O)cc1)C(C)C)C(=O)N[C@H](CC)C(=O)N[C@@H](Cc1c[nH]cn1)C(=O)N[C@@H](Cc1ccccc1)C(=O)N[C@@H](CCCNC(=N)N)C(=O)N[C@H](Cc1c[nH]c2ccccc12)C(=O)N[C@@H](CC(=O)O)C(=O)N[C@@H](CCCNC(=N)N)C(=O)N[C@@H](Cc1ccccc1)C(=O)NCC(=O)O [CTX-1135, Tyr-Val-Nle-D-Abu-His-Phe-Arg-D-Trp-Asp-Arg-Phe-Gly] (H-YV[Nle][dAbu]HFR[dW]DRFG-OH) | 667
CCCC[C@H](NC(=O)[C@@H](NC(=O)[C@H](N)Cc1ccc(O)cc1)C(C)C)C(=O)N[C@H](C)C(=O)N[C@@H](Cc1c[nH]cn1)C(=O)N[C@@H](Cc1ccccc1)C(=O)N[C@@H](CCCNC(=N)N)C(=O)N[C@H](Cc1c[nH]c2ccccc12)C(=O)N[C@@H](CC(=O)O)C(N)=O [CTX-1142, D-Tyr-Val-Nle-D-Ala-His-Phe-Arg-D-Trp-Asp] (H-[dY]V[Nle][dA]HFR[dW]D-NH2) | 54
CCCC[C@H](NC(C)=O)C(=O)NC(C)(C)C(=O)N[C@@H](Cc1c[nH]cn1)C(=O)N[C@@H](Cc1ccccc1)C(=O)N[C@@H](CCCNC(=N)N)C(=O)N[C@H](Cc1c[nH]c2ccccc12)C(=O)N[C@@H](CC(=O)O)C(=O)N[C@@H](CCCNC(=N)N)C(=O)N[C@@H](Cc1ccccc1)C(=O)NCC(=O)O [CTX-1143, Nle-Aib-His-Phe-Arg-D-Trp-Asp-Arg-Phe-Gly] (Ac-[Nle][Aib]HFR[dW]DRFG-OH) | 3544
CCCC[C@H](NC(C)=O)C(=O)N[C@H](C)C(=O)N[C@@H](Cc1c[nH]cn1)C(=O)N[C@@H](Cc1ccccc1)C(=O)N[C@@H](CCCNC(=N)N)C(=O)N[C@H](Cc1c[nH]c2ccccc12)C(=O)N[C@@H](CC(=O)O)C(=O)N[C@@H](CCCNC(=N)N)C(=O)N[C@H](Cc1ccccc1)C(=O)NCC(=O)O [CTX-1145, Nle-D-Ala-His-Phe-Arg-D-Trp-Asp-Arg-D-Phe-Gly] (Ac-[Nle][dA]HFR[dW]DR[dF]G-OH) | 535
CCCC[C@H](NC(=O)[C@@H](NC(=O)CNC(=O)COCCOCCNC(=O)CNC(=O)CCc1ccc(I)cc1)C(C)C)C(=O)N[C@H](C)C(=O)N[C@@H](Cc1c[nH]cn1)C(=O)N[C@@H](Cc1ccccc1)C(=O)N[C@@H](CCCNC(=N)N)C(=O)N[C@H](Cc1c[nH]c2ccccc12)C(=O)N[C@@H](CC(=O)O)C(=O)N[C@@H](CCCNC(=N)N)C(=O)N[C@@H](Cc1ccccc1)C(=O)NCC(=O)O [CTX-1150, Gly-Val-Nle-D-Ala-His-Phe-Arg-D-Trp-Asp-Arg-Phe-Gly] | 577
CCCC[C@H](NC(=O)[C@@H](NC(=O)[C@@H](Cc1ccc(O)cc1)NC(=O)CNC(=O)COCCOCCNC(=O)CNC(=O)CCc1ccc(I)cc1)C(C)C)C(=O)N[C@H](C)C(=O)N[C@@H](Cc1c[nH]cn1)C(=O)N[C@@H](Cc1ccccc1)C(=O)N[C@@H](CCCNC(=N)N)C(=O)N[C@H](Cc1c[nH]c2ccccc12)C(=O)N[C@@H](CC(=O)O)C(=O)N[C@H](CCCNC(=N)N)C(=O)N[C@@H](Cc1ccccc1)C(=O)NCC(=O)O [CTX-1156, Gly-D-Tyr-Val Nle-D-Ala-His-Phe-Arg-D-Trp-Asp-D-Arg-Phe-Gly] | 86
CCCC[C@H](NC(C)=O)C(=O)N[C@H](C)C(=O)N[C@@H](Cc1c[nH]cn1)C(=O)N[C@@H](Cc1ccccc1)C(=O)N[C@@H](CCCNC(=N)N)C(=O)N[C@H](Cc1c[nH]c2ccccc12)C(=O)N[C@@H](CC(=O)O)C(=O)N[C@@H](CCCNC(=N)N)C(=O)N[C@@H](Cc1ccccc1)C(N)=O [CTX-1158, Nle-D-Ala-His-Phe-Arg-D-Trp-Asp-Arg-Phe] (Ac-[Nle][dA]HFR[dW]DRF-NH2) | 535
CCCC[C@H](NC(C)=O)C(=O)N[C@H](C)C(=O)N[C@@H](Cc1c[nH]cn1)C(=O)N[C@@H](Cc1ccccc1)C(=O)N[C@@H](CCCNC(=N)N)C(=O)N[C@H](Cc1c[nH]c2ccccc12)C(=O)N[C@@H](CC(=O)O)C(=O)N[C@@H](CCCNC(=N)N)C(=O)N[C@H](Cc1ccccc1)C(N)=O [CTX-1159, Nle-D-Ala-His-Phe-Arg-D-Trp-Asp-Arg-D-Phe] (Ac-[Nle][dA]HFR[dW]DR[dF]-NH2) | 213
CCCC[C@H](NC(C)=O)C(=O)N[C@H](C)C(=O)N[C@@H](Cc1c[nH]cn1)C(=O)N[C@@H](Cc1ccccc1)C(=O)N[C@@H](CCCNC(=N)N)C(=O)N[C@H](Cc1c[nH]c2ccccc12)C(=O)N[C@@H](CC(=O)O)C(=O)N[C@@H](CCCNC(=N)N)C(=O)N[C@H](Cc1ccccc1)C(=O)N[C@@H](CCCCN)C(=O)O [CTX-1160, Nle-D-Ala-His-Phe-Arg-D-Trp-Asp-Arg-D-Phe-Lys] (Ac-[Nle][dA]HFR[dW]DR[dF]K-OH) | 1,257
CCCC[C@H](NC(C)=O)C(=O)N[C@H](C)C(=O)N[C@@H](Cc1c[nH]cn1)C(=O)N[C@@H](Cc1ccccc1)C(=O)N[C@@H](CCCNC(=N)N)C(=O)N[C@H](Cc1c[nH]c2ccccc12)C(=O)N[C@@H](CC(=O)O)C(=O)N[C@@H](CCCNC(=N)N)C(N)=O [CTX-1163, Nle-D-Ala-His-Phe-Arg-D-Trp-Asp-Arg] (Ac-[Nle][dA]HFR[dW]DR-NH2) | 282
CCCC[C@H](NC(C)=O)C(=O)N[C@H](C)C(=O)N[C@@H](Cc1c[nH]cn1)C(=O)N[C@@H](Cc1ccc(Cl)cc1)C(=O)N[C@@H](CCCNC(=N)N)C(=O)N[C@H](Cc1c[nH]c2ccccc12)C(=O)N[C@@H](CC(=O)O)C(=O)N[C@@H](CCCNC(=N)N)C(=O)N[C@@H](Cc1ccccc1)C(=O)NCC(=O)O [CTX-1166, Nle-D-Ala-His-Phe(4-Cl)-Arg-D-Trp-Asp-Arg-Phe-Gly] (Ac-[Nle][dA]H[Phe(4-Cl)]R[dW]DRFG-OH) | 3099
CCCC[C@H](NC(C)=O)C(=O)N[C@H](C)C(=O)N[C@@H](Cc1c[nH]cn1)C(=O)N[C@@H](Cc1ccc(-c2ccccc2)cc1)C(=O)N[C@@H](CCCNC(=N)N)C(=O)N[C@H](Cc1c[nH]c2ccccc12)C(=O)N[C@@H](CC(=O)O)C(=O)N[C@@H](CCCNC(=N)N)C(=O)N[C@@H](Cc1ccccc1)C(=O)NCC(N)=O [CTX-1168, Nle-D-Ala-His-Bip-Arg-D-Trp-Asp-Arg-Phe-Gly] (Ac-[Nle][dA]H[Bip]R[dW]DRFG-NH2) | 485
